Patent US11111233B2, “Amino pyrimidine compound for inhibiting protein tyrosine kinase activity” (Shenzhen TargetRx, Inc., priority 2016, dated 2021)
Where two headings read alike, the source gives them in different places.

Experiments:
[1] = tested on: lung cancer cells HCC827 (Del19); test: Cytotoxicity test (MTS cell viability), HCC827; format: cell-based; conditions: Homo sapiens
[2] = tested on: Skin cancer cell line A431 (WT); test: Cytotoxicity test (MTS cell viability), A431; format: cell-based; conditions: Homo sapiens, A-431; MTS, 72 hours; read-out: A431 (WT) IC50
WT EGFR = WT EGFR (Homo sapiens (Human), UniProt P00533); test: Kinase inhibition assay (HTRF), WT EGFR; format: biochemical; conditions: HTRF Kinase TK kit, 10 min pre-incubation, 20 min reaction
Chain of WT EGFR (P00533 25-1210): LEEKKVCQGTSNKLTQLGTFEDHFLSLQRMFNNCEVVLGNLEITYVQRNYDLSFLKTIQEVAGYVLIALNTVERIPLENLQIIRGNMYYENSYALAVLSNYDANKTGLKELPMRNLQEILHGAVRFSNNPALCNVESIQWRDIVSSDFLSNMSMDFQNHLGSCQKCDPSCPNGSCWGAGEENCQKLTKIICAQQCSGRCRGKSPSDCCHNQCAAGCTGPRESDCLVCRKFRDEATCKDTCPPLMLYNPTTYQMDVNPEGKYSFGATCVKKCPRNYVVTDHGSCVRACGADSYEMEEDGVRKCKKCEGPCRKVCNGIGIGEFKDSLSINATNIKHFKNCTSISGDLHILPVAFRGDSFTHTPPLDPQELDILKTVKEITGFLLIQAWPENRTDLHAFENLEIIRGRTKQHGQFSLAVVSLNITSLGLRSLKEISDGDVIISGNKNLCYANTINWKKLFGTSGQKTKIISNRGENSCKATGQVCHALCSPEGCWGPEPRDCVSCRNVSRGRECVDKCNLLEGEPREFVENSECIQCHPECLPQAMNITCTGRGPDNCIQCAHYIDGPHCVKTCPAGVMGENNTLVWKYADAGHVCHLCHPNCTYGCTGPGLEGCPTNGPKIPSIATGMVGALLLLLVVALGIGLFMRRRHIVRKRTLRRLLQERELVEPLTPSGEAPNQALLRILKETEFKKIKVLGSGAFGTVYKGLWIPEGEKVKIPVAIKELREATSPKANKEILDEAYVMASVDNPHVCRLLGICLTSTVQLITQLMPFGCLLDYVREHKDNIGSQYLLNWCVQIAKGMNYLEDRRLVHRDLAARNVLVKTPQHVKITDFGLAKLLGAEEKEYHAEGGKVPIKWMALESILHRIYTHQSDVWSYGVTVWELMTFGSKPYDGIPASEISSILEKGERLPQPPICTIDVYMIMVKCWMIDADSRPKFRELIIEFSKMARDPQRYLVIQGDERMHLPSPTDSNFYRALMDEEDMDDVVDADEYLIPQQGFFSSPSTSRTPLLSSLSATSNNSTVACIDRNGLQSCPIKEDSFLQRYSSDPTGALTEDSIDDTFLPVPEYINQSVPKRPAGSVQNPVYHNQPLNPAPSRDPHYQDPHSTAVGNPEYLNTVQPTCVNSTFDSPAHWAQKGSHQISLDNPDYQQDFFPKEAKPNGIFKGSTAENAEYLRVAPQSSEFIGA

EGFR [L858R/T790M] = EGFR [L858R/T790M] (Homo sapiens (Human), UniProt P00533, L858R/T790M); test: Kinase inhibition assay (HTRF), EGFR [L858R/T790M]; format: biochemical; conditions: HTRF Kinase TK kit, 10 min pre-incubation, 20 min reaction; read-out: EGFR(L858R/T790M) IC50
Chain of EGFR [L858R/T790M] (P00533 25-1210 T790M/L858R): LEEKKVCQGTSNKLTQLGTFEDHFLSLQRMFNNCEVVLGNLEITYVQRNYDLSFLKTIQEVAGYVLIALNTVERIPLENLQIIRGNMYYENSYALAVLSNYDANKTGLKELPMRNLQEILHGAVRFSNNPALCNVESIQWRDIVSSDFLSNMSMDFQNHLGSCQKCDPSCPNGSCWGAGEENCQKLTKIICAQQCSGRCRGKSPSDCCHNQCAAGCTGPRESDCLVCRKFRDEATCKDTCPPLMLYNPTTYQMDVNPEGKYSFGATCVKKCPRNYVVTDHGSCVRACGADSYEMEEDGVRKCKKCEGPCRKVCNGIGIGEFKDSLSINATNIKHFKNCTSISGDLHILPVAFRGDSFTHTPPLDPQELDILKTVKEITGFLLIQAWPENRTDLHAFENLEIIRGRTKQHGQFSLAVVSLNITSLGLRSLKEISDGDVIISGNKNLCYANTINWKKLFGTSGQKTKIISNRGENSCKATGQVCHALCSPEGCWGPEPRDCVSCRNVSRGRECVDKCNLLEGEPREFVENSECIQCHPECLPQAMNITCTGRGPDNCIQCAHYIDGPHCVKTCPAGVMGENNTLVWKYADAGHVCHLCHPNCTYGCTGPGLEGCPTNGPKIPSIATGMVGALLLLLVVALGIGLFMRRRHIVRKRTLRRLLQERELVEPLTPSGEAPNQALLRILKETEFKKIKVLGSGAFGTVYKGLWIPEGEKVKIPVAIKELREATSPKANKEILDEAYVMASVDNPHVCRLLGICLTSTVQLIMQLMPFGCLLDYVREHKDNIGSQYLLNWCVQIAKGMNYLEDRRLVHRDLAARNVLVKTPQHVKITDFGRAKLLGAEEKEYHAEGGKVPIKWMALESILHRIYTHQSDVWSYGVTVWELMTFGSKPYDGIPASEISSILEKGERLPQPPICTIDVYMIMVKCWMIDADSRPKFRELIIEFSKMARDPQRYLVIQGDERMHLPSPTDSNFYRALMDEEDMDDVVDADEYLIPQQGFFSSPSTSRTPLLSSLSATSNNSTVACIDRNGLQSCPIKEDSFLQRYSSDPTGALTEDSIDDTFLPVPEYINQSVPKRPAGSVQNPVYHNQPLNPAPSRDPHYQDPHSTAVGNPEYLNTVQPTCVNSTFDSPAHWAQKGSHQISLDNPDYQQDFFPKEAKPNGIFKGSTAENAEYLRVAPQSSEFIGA

[3] = HCC827, MTS, 72 hours, read-out: HCC827 (Del19) IC50
[4] = HCC827, 72 h, read-out: HCC827 (Del19) IC50(nM)

Row | SMILES | IC50 (WT EGFR) | IC50 (EGFR [L858R/T790M]) | IC50 [1, 3] | IC50 [2] | IC50 [1, 4]
1 | C=C(C)c1c(C)nc2c(F)cc(-c3nc(Nc4ccc(N5CCN(C)CC5)cc4OC)ncc3F)cn12 [Example 57, 5-fluoro-4-(8-fluoro-2-methyl-3-(prop-1-en-2-yl)imidazo[1,2-a]pyridine-6-yl)-N-(2-methoxy-4-(4-methylpiperazin-1-yl)phenyl)pyrimidin-2-amine] | > 100 nM | 1 to 50 nM | > 1000 nM | > 1000 nM | –
2 | C=CC(=O)Nc1cc(Nc2nccc(-c3cc(F)c4nc(C)n(C(C)C)c4c3)n2)c(OCC(F)(F)F)cc1N(C)CCN(C)C [Example 49, N-(2-((2-(dimethylamino)ethyl)(methyl)amino)-5-((4-(4-fluoro-1-isopropyl-2-methyl-1H-benzo[d]imidazole-6-yl)pyrimidin-2-yl)amino)-4-(2,2,2-trifluoroethoxy)phenyl)acrylamide] | < 1 nM | < 1 nM | – | 10 to 100 nM | < 10 nM
3 | C=CC(=O)Nc1cc(Nc2nccc(-c3cc(F)c4nc(C)n(C(C)C)c4c3)n2)c(OC)cc1N1CCC(N2CCOCC2)CC1 [Example 13] | 1 to 50 nM | 1 to 50 nM | – | > 1000 nM | 10 to 100 nM
4 | C=CC(=O)Nc1cc(Nc2nccc(-c3cc(F)c4nc(C)cn4c3)n2)c(OC)cc1N(C)CCN(C)C [Example 29, N-(2-((2-(dimethylamino)ethyl)(methyl)amino)-5-((4-(8-fluoro-2-methylimidazo[1,2-a]pyridine-6-yl)pyrimidin-2-yl)amino)-4-methoxyphenyl)acrylamide] | 1 to 50 nM | 1 to 50 nM | 100 to 400 nM | 400 to 1000 nM | –
5 | C=CC(=O)Nc1cc(Nc2ncc(C3CC3)c(-c3cc(F)c4nc(C)n(C(C)C)c4c3)n2)c(OC)cc1N(C)CCN(C)C [Example 9, N-(2-((2-(dimethylamino)ethyl)(methyl)amino)-5-((5-cyclopropyl-4-(4-fluoro-1-isopropyl-2-methyl-1H-benzo[d]imidazole-6-yl)pyrimidin-2-yl)amino)-4-methoxyphenyl)acrylamide] | > 100 nM | 1 to 50 nM | 400 to 1000 nM | > 1000 nM | –

Now from value to molecule, other results behind:

Row | IC50 (WT EGFR) | IC50 (EGFR [L858R/T790M]) | SMILES | IC50 [1, 3] | IC50 [2] | IC50 [1, 4]
6 | 1 to 50 nM | < 1 nM | C=CC(=O)Nc1cc(Nc2nccc(-c3cc(F)c4ocnc4c3)n2)c(OC)cc1N(C)CCN(C)C [Example 33, N-(2-((2-(dimethylamino)ethyl)(methyl)amino)-5-((4-(7-fluorobenzo[d]oxazole-5-yl)pyrimidin-2-yl)amino)-4-methoxyphenyl)acrylamide] | 10 to 100 nM | > 1000 nM | –
7 | 1 to 50 nM | < 1 nM | C=CC(=O)Nc1cc(Nc2nccc(-c3cc(F)c4cnn(C(C)C)c4c3)n2)c(OC)cc1N(C)CCN(C)C [Example 26, N-(2-((2-(dimethylamino)ethyl)(methyl)amino)-5-((4-(4-fluoro-1-isopropyl-1H-indazole-6-yl)pyrimidin-2-yl)amino)-4-methoxyphenyl)acrylamide] | 10 to 100 nM | 400 to 1000 nM | –
8 | < 1 nM | < 1 nM | C=CC(=O)Nc1cc(Nc2nccc(-c3cc(F)c4nn(C)c(C(C)C)c4c3)n2)c(OC)cc1N(C)CCN(C)C [Example 41, N-(2-((2-(dimethylamino)ethyl)(methyl)amino)-5-((4-(7-fluoro-3-isopropyl-2-methyl-2H-indazole-5-yl)pyrimidin-2-yl)amino)-4-methoxyphenyl)acrylamide] | < 10 nM | 100 to 400 nM | –
9 | 1 to 50 nM | 1 to 50 nM | C=CC(=O)Nc1cc(Nc2nccc(-c3cc(F)c4nc5n(c4c3)CC(C)(C)O5)n2)c(OC)cc1N(C)CCN(C)C [Example 66, N-(2-((2-(dimethylamino)ethyl)(methyl)amino)-5-((4-(8-fluoro-2,2-dimethyl-2,3-dihydrobenzo[4,5]imidazo[2,1-b]oxazol-6-yl)pyrimidin-2-yl)amino)-4-methoxyphenyl)acrylamide] | 10 to 100 nM | 400 to 1000 nM | –
